Tested on: patients with advanced solid tumors
Test: Phase 1 trial: adverse events (CTCAE), DLT and MTD
Format: in vivo, human
Procedure: The phase 1 trial was a two-part, multicenter, open-label, nonrandomized study to evaluate the safety and preliminary efficacy of HA121-28.
Safety, tolerability, and PK of HA121-28 was assessed in dose-escalation part. The single-patient accelerated titration was carried out at 25 mg and 50 mg; then, the dose escalation proceeded according to a “3 + 3” design in dose range of 100 to 800 mg. Escalation to a higher dose level was considered by the satisfactory review of safety results from the previous lower dose during the first cycle.
The dose-expansion part aims to further access the safety and efficacy of HA121-28 at the selected doses based on data from the dose-escalation part. The RP2D was determined by investigators in view of a thorough review of safety, PK, and efficacy results.
In phase 1 trial, during the dose-escalation part, patients first administered HA121-28 in a single ascending dose under the fasted state, then followed up for seven days. Then, patients received ascending doses of HA121-28 (q.d.) on a 21-day on and 7-day off treatment scheme for a 28-day cycle. For patients deemed beneficial from the treatment by investigators, treatment could remain until disease progression, or they discontinued from the study. In the dose-expansion part of phase 1, as well as phase 2, patients received HA121-28 (q.d.) at the selected doses on a 21-day on and 7-day off treatment scheme until disease progression, or they discontinued from the study.
Treatment-emergent adverse events (TEAEs) were documented during the entire study period. The predefined adverse event of special interest (AESI) was ≥ grade 3 prolonged QT interval. Tumor imaging was performed using contrast-enhanced computed tomography or magnetic resonance imaging at screening, Day 28 of the first cycle, then approximately every eight weeks till the end of the study for phase 1; in phase 2, imaging was scheduled at screening, and every eight weeks during the first 40 weeks, followed by every 12 weeks for the rest of the study period. RECIST 1.1 was used by the independent review committee or investigators for assessment of tumor response. After the original assessment, a repeated assessment was required around four weeks later to confirm a complete or partial response.
The primary endpoints of phase 1 were to investigate the MTD, dose-limiting toxicities, and the incidence and severity of TEAEs. Each TEAE was graded according to the Common Terminology Criteria for Adverse Events (CTCAE, version 5.0) and coded by Medical Dictionary for Regulatory Activities (MedDRA, version 21.0). The secondary endpoints included calculating PK parameters, assessing the ORR and DCR at the recommended dose by investigators as per RECIST 1.1. The exploratory endpoint was PFS.
If grade 2 or higher toxicity related to the study drug occurs in Groups 1 and 2 (as determined by the investigator), dose escalation will proceed using a 3+3 design starting from that dose level. If no DLT is observed at the 800 mg/d dose level after dose escalation, a meeting of investigators will be convened to decide whether to proceed with further dose escalation based on the available PK data, safety, and tolerability information.
5. Definition of DLT and MTD
The following events related to the study drug (including those that are definitely related, highly likely to be related, and possibly related):
(1) Grade 4 hematologic toxicity or grade 3 neutropenia accompanied by a fever of 38.5℃ or higher, or grade 3 thrombocytopenia accompanied by severe bleeding.
(2) Patients who discontinued the medication for more than 7 days due to unresolved toxicity reactions or who discontinued the medication more than twice due to toxicity […]
(3) In the context of supportive treatment, diarrhea of grade 2 lasting more than 7 days, or grade 3 diarrhea lasting more than 3 days.

[1] = Phase 1 Study, patient 5 with Grade 3 QTc prolongation
[2] = Phase 1 Study, patient 9 with Grade 3 QTc prolongation

COc1cc2c(Nc3ccc(Br)cc3F)ncnc2cc1OCCCCN(C)C.Cl.Cl [HA121-28, N-(4-bromo-2-fluorophenyl)-7-(4-(dimethylamino)butoxy)-6-methoxy quinazolin-4-amine dihydrochloride]
Serious TRAE: Hypoalbuminemia (Phase 1, 800 mg (N=3)): 0 No. (%)
Serious TRAE: Intestinal obstruction (Phase 1, 800 mg (N=3)): 0 No. (%)
Serious TRAE: Intra-abdominal fluid collection (Phase 1, 800 mg (N=3)): 0 No. (%)
Serious TRAE: Intracranial tumor hemorrhage (Phase 1, 800 mg (N=3)): 0 No. (%)
Serious TRAE: Liver injury (Phase 1, 800 mg (N=3)): 0 No. (%)
Serious TRAE: Lung adenocarcinoma (Phase 1, 800 mg (N=3)): 0 No. (%)
Serious TRAE: Malignant neoplasm progression (Phase 1, 800 mg (N=3)): 0 No. (%)
Serious TRAE: Multiple organ dysfunction syndrome (Phase 1, 800 mg (N=3)): 0 No. (%)
Serious TRAE: Nausea (Phase 1, 800 mg (N=3)): 0 No. (%)
Serious TRAE: Nephrolithiasis (Phase 1, 800 mg (N=3)): 0 No. (%)
Serious TRAE: Platelet counts decreased (Phase 1, 800 mg (N=3)): 0 No. (%)
Serious TRAE: Pleural effusion (Phase 1, 800 mg (N=3)): 0 No. (%)
Serious TRAE: Pneumonia (Phase 1, 800 mg (N=3)): 0 No. (%)
Serious TRAE: Pneumonitis (Phase 1, 800 mg (N=3)): 0 No. (%)
Serious TRAE: Prolonged QT interval (Phase 1, 800 mg (N=3)): 0 No. (%)
Serious TRAE: Pulmonary embolism (Phase 1, 800 mg (N=3)): 0 No. (%)
Serious TRAE: Pyrexia (Phase 1, 800 mg (N=3)): 0 No. (%)
Serious TRAE: Rash (Phase 1, 800 mg (N=3)): 0 No. (%)
Serious TRAE: Rectal hemorrhage (Phase 1, 800 mg (N=3)): 0 No. (%)
Serious TRAE: Respiratory failure (Phase 1, 800 mg (N=3)): 0 No. (%)
Serious TRAE: Seizure (Phase 1, 800 mg (N=3)): 0 No. (%)
Serious TRAE: Septic shock (Phase 1, 800 mg (N=3)): 0 No. (%)
Serious TRAE: Sudden cardiac arrest (Phase 1, 800 mg (N=3)): 0 No. (%)
Serious TRAE: Sudden death (Phase 1, 800 mg (N=3)): 0 No. (%)
Serious TRAE: Upper respiratory tract infection (Phase 1, 800 mg (N=3)): 0 No. (%)
Serious TRAE: Ventricular tachycardia (Phase 1, 800 mg (N=3)): 0 No. (%)
Serious TRAE: Vomiting (Phase 1, 800 mg (N=3)): 0 No. (%)
Serious TRAE: Weight loss (Phase 1, 800 mg (N=3)): 1 (33.3) No. (%)
Grade of cardiac TEAE: Cardiopalmus (Phase 1 Study, patient 1 with Grade 3 QTc prolongation): 2
Grade of cardiac TEAE: Bradycardia (Phase 1 Study, patient 2 with Grade 3 QTc prolongation): 1
Grade of cardiac TEAE: nodal tachycardia (Phase 1 Study, patient 3 with Grade 3 QTc prolongation): 1
Grade of cardiac TEAE: T wave anomaly (Phase 1 Study, patient 4 with Grade 3 QTc prolongation): 1
Grade of cardiac TEAE: Complete right bundle branch block [1]: 1
Grade of cardiac TEAE: Incomplete right bundle branch block [1]: 1
Grade of cardiac TEAE: sinus bradycardia [1]: 1
Grade of cardiac TEAE: T wave anomaly (Phase 1 Study, patient 6 with Grade 3 QTc prolongation): 1
Grade of cardiac TEAE: Ventricular arrhythmia (Phase 1 Study, patient 7 with Grade 3 QTc prolongation): 4
Grade of cardiac TEAE: ST-T wave changes (Phase 1 Study, patient 8 with Grade 3 QTc prolongation): 1
Grade of cardiac TEAE: Abnormal Q wave of III and aVF leads [2]: 2
Grade of cardiac TEAE: Atrial premature beats [2]: 1
Grade of cardiac TEAE: ST-T wave changes [2]: 1
Grade of cardiac TEAE: T wave anomaly [2]: 1
maximum tolerated dose (MTD) (once daily, phase 1 dose escalation): 600 mg
AESI leading to dose interruption (phase 1): 10.6%
AESI leading to permanent discontinuation (phase 1): 0.6%
grade ≥ 3 TEAE diarrhea (phase 1): 8.1%
grade ≥ 3 TEAE prolonged QT interval (AESI) (phase 1): 15.0%
grade ≥ 3 TEAE rash (phase 1): 5.6%
patients with at least one TEAE (phase 1): 99.4%
patients with at least one TRAE (phase 1): 98.1%
patients with grade ≥ 3 TEAEs (phase 1): 48.8%
patients with grade ≥3 TRAEs (phase 1): 40.0%
patients with treatment-related SAEs (phase 1): 14.4%
treatment-related SAE rash (phase 1): 2.5%
TEAE diarrhea (phase 1, all grades): 78.8%
TEAE prolonged QT interval (phase 1, all grades): 50.0%
TEAE rash (phase 1, all grades): 57.5%
recommended phase 2 dose (RP2D) (q.d., 21-day on/7-day off): 450 mg

Reference: PMC11868595, “Safety, pharmacokinetics and efficacy of HA121-28 in patients with advanced solid tumors and RET fusion-positive non-small-cell lung cancer: a multicenter, open-label, single-arm phase 1/2 trial” (Signal Transduction and Targeted Therapy, 2025)
